# Reference: patent US5641779A, “Selective ligands of 5-HT1D -5-HT1B receptors derived from indolepiperazine which are useful medicaments” (Pierre Fabre Medicament, priority 1992, dated 1997)
# Structures can show the parent of a compound that is named as a salt.
# Key:
# [1] = target: T1, 5-HT1B (Rattus norvegicus, UniProt P28564); test: 5-HT1B receptor binding (Peroutka)
# T1 construct: from tissue; host or cells: rat frontal cortex
# Method: (§1) The IC50 values of the various products which form part of this invention for the other receptors were measured according to the techniques described in the following references:
# (§2) Peroutka S. J. Pharmacological differentiation and characterization of 5-HT1A, 5-HT1B and 5-HT1C binding sites in rat frontal cortex. J. Neurochem., 45, 529-540, 1986.
# [2] = target: T2, 5-HT1A (Rattus norvegicus, UniProt P19327); test: 5-HT1A receptor binding (Peroutka)
# T2 construct: from tissue; host or cells: rat frontal cortex
# T2 sequence (P19327 1-422): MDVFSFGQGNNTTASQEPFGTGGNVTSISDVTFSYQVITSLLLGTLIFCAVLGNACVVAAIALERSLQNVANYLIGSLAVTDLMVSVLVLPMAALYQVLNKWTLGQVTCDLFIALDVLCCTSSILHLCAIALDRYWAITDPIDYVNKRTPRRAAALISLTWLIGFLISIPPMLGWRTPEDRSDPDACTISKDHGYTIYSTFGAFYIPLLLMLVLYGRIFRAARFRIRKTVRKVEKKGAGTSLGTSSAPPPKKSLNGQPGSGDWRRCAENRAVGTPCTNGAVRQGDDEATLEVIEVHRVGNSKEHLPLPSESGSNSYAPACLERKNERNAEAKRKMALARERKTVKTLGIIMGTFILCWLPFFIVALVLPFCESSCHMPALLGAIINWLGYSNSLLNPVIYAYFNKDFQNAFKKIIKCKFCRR
# Method: as §1, §2
# [3] = target: α1-Adrenergic receptor; test: α1-Adrenergic receptor binding (Leslie Morrow and Creese); conditions: rat brain (title of cited method)
# Method: as §1
# Leslie Morrow A. and Creese I. Characterization of α1-adrenergic receptor subtypes in rat brain: a reevaluation of ^3 H-WB4101 and ^3 H prazosin binding. Mol. Pharmacol. 29, 321-330, 1986.
# [4] = target: T3, α2-Adrenergic receptor (Rattus norvegicus, UniProt P22909); test: α2-Adrenergic receptor binding (Mallard et al.)
# T3 construct: in the rat brain; from tissue; host or cells: rat brain
# T3 sequence (P22909 1-465): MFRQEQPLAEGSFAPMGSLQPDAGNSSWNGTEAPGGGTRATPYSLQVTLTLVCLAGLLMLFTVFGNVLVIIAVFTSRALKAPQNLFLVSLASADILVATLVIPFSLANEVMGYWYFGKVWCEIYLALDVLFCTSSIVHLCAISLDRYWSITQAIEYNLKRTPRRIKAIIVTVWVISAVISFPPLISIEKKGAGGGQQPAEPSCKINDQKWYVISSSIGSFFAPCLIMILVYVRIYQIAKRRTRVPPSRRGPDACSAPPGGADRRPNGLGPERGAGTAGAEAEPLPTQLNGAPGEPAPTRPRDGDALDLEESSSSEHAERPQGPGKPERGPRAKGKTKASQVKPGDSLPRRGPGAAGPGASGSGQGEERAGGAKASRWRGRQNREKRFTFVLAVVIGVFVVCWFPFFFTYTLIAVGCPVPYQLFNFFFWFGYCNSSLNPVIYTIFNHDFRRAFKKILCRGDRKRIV
# Method: as §1
# Mallard N. J., Tyacke R., Hudson A. L. and Nutt D. S. Comparative binding studies of ^3 -idazoxan and ^3 -RX821002 in the rat brain. Brit. J. Pharmacol. 102, 221P, 1991.
# [5] = target: T4, 5-HT1C (Sus scrofa, UniProt K7GSR7); test: 5-HT1C receptor binding (Pazos et al.); set-up: species or system porcine; conditions: porcine choroid plexus (title of cited method); read-out: IC50 5-HT1C
# T4 construct: serotonergic ligands to the porcine choroid plexus; from tissue; host or cells: porcine choroid plexus
# T4 sequence (K7GSR7 1-457): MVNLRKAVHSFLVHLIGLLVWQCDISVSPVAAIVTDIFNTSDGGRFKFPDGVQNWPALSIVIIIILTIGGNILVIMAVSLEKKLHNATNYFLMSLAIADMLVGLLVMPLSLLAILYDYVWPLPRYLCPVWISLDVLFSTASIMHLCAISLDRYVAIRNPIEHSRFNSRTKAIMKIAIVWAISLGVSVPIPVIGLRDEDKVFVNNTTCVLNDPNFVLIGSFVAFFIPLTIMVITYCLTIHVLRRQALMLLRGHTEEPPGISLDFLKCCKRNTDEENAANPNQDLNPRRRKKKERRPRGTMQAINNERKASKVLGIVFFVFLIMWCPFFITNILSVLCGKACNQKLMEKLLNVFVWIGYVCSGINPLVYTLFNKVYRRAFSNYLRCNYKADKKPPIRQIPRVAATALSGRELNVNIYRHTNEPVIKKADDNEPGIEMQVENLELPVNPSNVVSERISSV
# Method: as §1
# Pazos A., Hoyer D. and Palacios J. M. The binding sites of serotonergic ligands to the porcine choroid plexus: characterization of a new type of serotonin recognition site. Eur. J. Pharmacol., 106, 539-546, 1985.
# [6] = target: T5, D2-Dopaminergic receptor (Canis lupus familiaris, UniProt Q9GJU1); test: D2-Dopaminergic receptor binding (Nisnik et al.)
# T5 construct: from tissue
# T5 sequence (Q9GJU1 whole entry): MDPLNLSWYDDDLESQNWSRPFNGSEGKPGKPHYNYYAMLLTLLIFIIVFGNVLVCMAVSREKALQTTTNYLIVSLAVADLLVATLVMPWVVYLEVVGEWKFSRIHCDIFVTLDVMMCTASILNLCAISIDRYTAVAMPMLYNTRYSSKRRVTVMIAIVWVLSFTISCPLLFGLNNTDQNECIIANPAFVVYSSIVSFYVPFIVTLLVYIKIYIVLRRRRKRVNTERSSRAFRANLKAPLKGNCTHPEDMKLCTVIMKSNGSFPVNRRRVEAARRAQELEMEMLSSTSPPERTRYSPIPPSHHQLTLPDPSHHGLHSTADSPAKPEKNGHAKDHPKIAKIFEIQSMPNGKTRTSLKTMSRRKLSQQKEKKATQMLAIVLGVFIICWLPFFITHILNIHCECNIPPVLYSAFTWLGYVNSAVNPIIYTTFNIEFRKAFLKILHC
# Method: as §1
# Nisnik H. B., Grigoriadis D. E., Pri-Bar I., Buckman O. and Seeman P. Dopamine D2 receptors selectively labeled by a benzamide neuroleptic: ^3 H-YM-09159-2 Naunyn-Schmiedeberg's Arch. Pharmacol. 329, 333-343, 1985.
# [7] = test system: 5-HT1D; test: Affinity for 5-HT1D receptors (3H-5-HT binding, sheep caudate nuclei membranes); conditions: Ratio of the IC50 values for the 5HT1A and 5HT1D receptors
# Method: This study is carried out according to the technique described by Herrick-Davis and Titeler (J. Neurochem. 50, 1624-1631, 1988).
# Preparation of the membranes:
# Sheep brains are removed at the local abattoir and transported in ice. The caudate nuclei are removed, weighed and homogenized with a Polytron for 20 sec. (speed 6-7) in 20 volumes of Tris-HCl 50 mM, pH 7.7. The homogenate is centrifuged for 10 min at 48,000 g with an L5 50E centrifuge (Beckman).
# The pellet, taken up in 20 volumes of Tris-HCl 50 mM, pH 7.7, is placed in a water bath at 37° C. for 10 min and then recentrifuged for 10 min at 48,000 g. The pellet then obtained is immediately frozen in fractions containing 0.5 g of tissue.
# The pellet is defrosted and homogenized with a Dounce in 80 volumes of Tris-HCl, 50 mM pH 7.7 containing 4 mM CaCl2, 10μM of pargyline and 0.1% of ascorbic acid.
# Binding is carried out at 25° C. by incubating for 30 min:
# 0.1 ml of buffer or 10 μM, as final concentration, of sumatriptan, in order to obtain the non-specific binding, or the product which forms part of this invention at various concentrations (between 10^-10 and 10^-6 M).
# 0.8 ml of membrane suspension
# 0.1 ml of ^3 H-5-HT (15 to 30 Ci/mM, New England Nuclear France)
# The incubation is brought to an end by rapid filtration through GF/B filters and rinsing with 3 times 3 ml of ice-cold buffer, using a harvester manufactured by Brandel which makes it possible to filter 48 samples. The filters are introduced into vials containing 4 ml of emulsifier-safe liquid scintillant (Packard) and the radioactivity measured with a Tri-carb 4640 counter (Packard).
# The IC50 (concentration which inhibits the specific affinity by 50%) is determined graphically.
# [8] = target: T6, 5-HT2 (Rattus norvegicus, UniProt P14842); test: 5-HT2 receptor binding (Leysen et al.); conditions: 3H-ketanserine (title of cited method)
# T6 construct: from tissue
# T6 sequence (P14842 whole entry): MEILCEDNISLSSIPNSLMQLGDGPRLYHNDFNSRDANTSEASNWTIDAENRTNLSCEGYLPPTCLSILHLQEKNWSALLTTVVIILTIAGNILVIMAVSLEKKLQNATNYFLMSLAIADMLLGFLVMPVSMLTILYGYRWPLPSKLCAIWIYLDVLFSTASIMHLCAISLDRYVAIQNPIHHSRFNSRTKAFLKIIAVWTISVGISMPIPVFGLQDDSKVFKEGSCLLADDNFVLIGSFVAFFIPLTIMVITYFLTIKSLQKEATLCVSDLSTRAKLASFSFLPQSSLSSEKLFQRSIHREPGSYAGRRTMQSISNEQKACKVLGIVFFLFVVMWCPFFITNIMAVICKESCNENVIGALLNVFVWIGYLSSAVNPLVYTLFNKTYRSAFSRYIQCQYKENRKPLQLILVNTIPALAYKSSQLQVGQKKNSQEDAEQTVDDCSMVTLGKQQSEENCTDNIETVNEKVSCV
# Method: as §1
# Leysen J. E., Niemegeers C. J. E., Van Nueten J. M. and Laduron P.M. ^3 H-ketanserine (R 41468), a selective ^3 H ligand for serotonin2 receptor binding sites. Mol. Pharmacol., 21, 301-330, 1982.
# T1 sequence (P28564 whole entry): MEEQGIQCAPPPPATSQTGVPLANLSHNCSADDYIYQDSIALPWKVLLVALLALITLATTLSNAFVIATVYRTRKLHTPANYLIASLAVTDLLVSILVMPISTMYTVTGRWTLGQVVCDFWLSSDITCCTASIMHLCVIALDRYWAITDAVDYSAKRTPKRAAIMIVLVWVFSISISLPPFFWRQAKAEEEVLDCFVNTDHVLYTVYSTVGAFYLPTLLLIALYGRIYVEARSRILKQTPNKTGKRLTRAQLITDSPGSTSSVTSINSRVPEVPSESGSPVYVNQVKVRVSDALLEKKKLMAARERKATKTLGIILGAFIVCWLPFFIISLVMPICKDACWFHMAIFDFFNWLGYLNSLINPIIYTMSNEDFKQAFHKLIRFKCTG
smiles,measurement,setting,value
"COc1cccc(N2CCN(C(=O)COc3ccc4[nH]cc(CCN)c4c3)CC2)c1 [Example 6, 4-(m-Methoxyphenyl)-1-(tryptamine-5-O-carboxymethyl) piperazide hydrochloride]",IC50,[1],0.0011 µM
same,IC50,[2],0.0235 µM
same,IC50,[3],> 1 µM
same,IC50,[4],> 1 µM
same,IC50,[5],> 1 µM
same,IC50,[6],> 1 µM
same,Ratio 1A/1D,[7],8.1
same,IC50,[8],> 1 µM
